The values below come from patent publication US20230357239A1, “PYRIDO[2,3-D]PYRIMIDIN-4-AMINES AS SOS1 INHIBITORS” (Bayer Aktiengesellschaft, priority 2020, published 2023).

Chain of human SOS1 (SOS1) with human K-RasG12C (Q07889 564-1049): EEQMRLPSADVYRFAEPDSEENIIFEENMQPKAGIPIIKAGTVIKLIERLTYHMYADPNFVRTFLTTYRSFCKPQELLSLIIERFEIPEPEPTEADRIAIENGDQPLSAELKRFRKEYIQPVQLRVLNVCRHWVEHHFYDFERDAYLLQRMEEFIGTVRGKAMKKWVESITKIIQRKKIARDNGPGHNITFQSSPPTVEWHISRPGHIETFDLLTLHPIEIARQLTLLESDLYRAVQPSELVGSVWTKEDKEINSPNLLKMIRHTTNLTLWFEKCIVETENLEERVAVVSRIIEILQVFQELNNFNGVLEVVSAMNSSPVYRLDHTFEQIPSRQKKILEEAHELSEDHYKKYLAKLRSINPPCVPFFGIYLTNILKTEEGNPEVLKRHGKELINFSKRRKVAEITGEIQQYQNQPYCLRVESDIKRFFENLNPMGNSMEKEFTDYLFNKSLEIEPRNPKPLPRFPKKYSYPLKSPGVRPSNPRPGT

The experiment has as its target human SOS1 (SOS1) with human K-RasG12C (Homo sapiens (Human), UniProt Q07889). The experiment in a line: hK-RasG12C interaction assay with hSOS1 (HTRF). It counts as binding. Conditions: GST-hK-RasG12C and His-hSOS1, 60 min incubation at 20° C, mean, read-out: K-RasG12C - SOS interaction assay IC50 - [mol/l] (mean). As to the method: Biochemical Assay: hK-RasG12C Interaction Assay with hSOS1
This assay quantifies the equilibrium interaction of human SOS1 (SOS1) with human K-Ras^G12C (K-RasG12C). Detection of the interaction is achieved by measuring homogenous time-resolved fluorescence resonance energy transfer (HTRF) from antiGST-Europium (FRET donor) bound to GST-K-RasG12C to anti-6His-XL665 bound to His-tagged hSOS1 (FRET-acceptor).
The assay buffer containes 5 mM HEPES pH 7.4 (Applichem), 150 mM NaCl (Sigma), 10 mM EDTA (Promega), 1 mM DTT (Thermofisher), 0.05% BSA Fraction V, pH 7.0, (ICN Biomedicals), 0.0025% (v/v) Igepal (Sigma) and 100 mM KF (FLUKA).
Concentrations of protein batches used are optimized to be within the linear range of the HTRF signal. A Ras working solution is prepared in assay buffer containing typically 10 nM GST-hK-RasG12C and 2 nM antiGST-Eu(K) (Cisbio, France). A SOS1 working solution is prepared in assay buffer containing typically 20 nM His-hSOS1 and 10 nM anti-6His-XL665 (Cisbio, France). An inhibitor control solution is prepared in assay buffer containing 10 nM anti-6His-XL665 without SOS1.
Fifty nl of a 100-fold concentrated solution of the test compound in DMSO are transferred into a black microtiter test plate (384 or 1536, Greiner Bio-One, Germany).
For this, either a Hummingbird liquid handler (Digilab, MA, USA) or an Echo acoustic system (Labcyte, CA, USA) is used.
All steps of the assay are performed at 20° C. A volume of 2.5 μl of the Ras working solution is added to all wells of the test plate using a Multidrop dispenser (Thermo Labsystems). After 2 min preincubation, 2.5 μl of the SOS1 working solution are added to all wells except for those wells at the side of the test plate that are subsequently filled with 2.5 μl of the inhibitor control solution. After 60 min incubation the fluorescence is measured with a Pherastar (BMG, Germany) using the HTRF module (excitation 337 nm, emission 1: 620 nm, emission 2: 665 nm).
The ratiometric data (emission 2 divided by emission 1) are normalized using the controls (DMSO=0% inhibition, inhibition control wells with inhibitor control solution=100% inhibition). […] IC50 values are calculated by 4-Parameter fitting using a commercial software package (Genedata Screener, Switzerland).
(Time-resolved FRET reads energy transfer from a long-lived donor to a nearby acceptor.)
As to `Cc1nc(N[C@H](C)c2cccc(C(F)(F)F)c2C)c2cc(-c3cncnc3)cnc2n1` [Example 45, 2-methyl-N-{(1R)-1-[2-methyl-3-(trifluoromethyl)phenyl]ethyl}-6-(pyrimidin-5-yl)pyrido[2,3-d]pyrimidin-4-amine], the IC50 came out at 21.1 nM.
The value for `CC(=O)N1CC=C(c2cnc3nc(C)nc(N[C@H](C)c4cccc(C(F)(F)F)c4C)c3c2)CC1` [Example 25, 1-{4-[2-methyl-4-({(1R)-1-[2-methyl-3-(trifluoromethyl)phenyl]ethyl}amino)pyrido[2,3-d]pyrimidin-6-yl]-3,6-dihydropyridin-1(2H)-yl}ethan-1-one] was 5.78 nM.
`CC(=O)N1CCC(c2cnc3nc(C)nc(N[C@H](C)c4cccc(C(F)(F)C(C)(C)O)c4F)c3c2)CC1` [Example 47, 1-{4-[4-({(1R)-1-[3-(1,1-difluoro-2-hydroxy-2-methylpropyl)-2-fluorophenyl]ethyl}amino)-2-methylpyrido[2,3-d]pyrimidin-6-yl]piperidin-1-yl}ethan-1-one]: the IC50 came out at 4 nM.
Turning to `CC(=O)N1CCN(c2cnc3nc(C)nc(N[C@H](C)c4cccc(C(F)(F)C(C)(C)O)c4F)c3c2)CC1` [Example 53, 1-{4-[4-({(1R)-1-[3-(1,1-difluoro-2-hydroxy-2-methylpropyl)-2-fluorophenyl]ethyl}amino)-2-methylpyrido[2,3-d]pyrimidin-6-yl]piperazin-1-yl}ethan-1-one], the IC50 is 3.34 nM.
For `CC(=O)N1CC2(C1)CN(c1cc3c(N[C@H](C)c4cccc(C(F)F)c4F)nc(C)nc3nc1C(F)(F)F)C2` [Example 69, 1-{6-[4-({(1R)-1-[3-(difluoromethyl)-2-fluorophenyl]ethyl}amino)-2-methyl-7-(trifluoromethyl)pyrido[2,3-d]pyrimidin-6-yl]-2,6-diazaspiro[3.3]heptan-2-yl}ethan-1-one], the IC50 amounted to 29.5 nM.
Regarding `CC(=O)N1CC2(C1)CN(c1cnc3nc(C)nc(N[C@H](C)c4cccc(C(F)(F)F)c4C)c3c1)C2` [Example 8, 1-{6-[2-methyl-4-({(1R)-1-[2-methyl-3-(trifluoromethyl)phenyl]ethyl}amino)pyrido[2,3-d]pyrimidin-6-yl]-2,6-diazaspiro[3.3]heptan-2-yl}ethan-1-one], the IC50 amounted to 15.7 nM.
Regarding `CC(=O)N[C@@H]1CCN(c2cnc3nc(C)nc(N[C@H](C)c4cccc(C(F)(F)F)c4C)c3c2)C1` [Example 16, N-{(3R)-1-[2-methyl-4-({(1R)-1-[2-methyl-3-(trifluoromethyl)phenyl]ethyl}amino)pyrido[2,3-d]pyrimidin-6-yl]pyrrolidin-3-yl}acetamide], the IC50 was determined as 17.5 nM.
For `CC(=O)N1CC=C(c2cc3c(N[C@H](C)c4cccc(C(F)(F)F)c4C)nc(C)nc3nc2C(F)(F)F)CC1` [Example 41, 1-{4-[2-methyl-4-({(1R)-1-[2-methyl-3-(trifluoromethyl)phenyl]ethyl}amino)-7-(trifluoromethyl)pyrido[2,3-d]pyrimidin-6-yl]-3,6-dihydropyridin-1(2H)-yl}ethan-1-one] the value was 23 nM; for `CC(=O)N1C2CC1CN(c1cnc3nc(C)nc(N[C@H](C)c4cccc(C(F)(F)C(C)(C)O)c4F)c3c1)C2` [Example 49, 1-{3-[4-({(1R)-1-[3-(1,1-difluoro-2-hydroxy-2-methylpropyl)-2-fluorophenyl]ethyl}amino)-2-methylpyrido[2,3-d]pyrimidin-6-yl]-3,6-diazabicyclo[3.1.1]heptan-6-yl}ethan-1-one], 3.31 nM; for `CC(=O)N1CC=C(c2cnc3ncnc(N[C@H](C)c4cccc(C(F)(F)F)c4)c3c2)CC1` [Example 5, 1-{4-[4-({(1R)-1-[3-(trifluoromethyl)phenyl]ethyl}amino)pyrido[2,3-d]pyrimidin-6-yl]-3,6-dihydropyridin-1(2H)-yl}ethan-1-one], 4.24 nM.
For `Cc1nc(N[C@H](C)c2cccc(C(F)(F)F)c2C)c2cc(N3CCN(C)CC3)cnc2n1` [Example 15, 2-methyl-6-(4-methylpiperazin-1-yl)—N-{(1R)-1-[2-methyl-3-(trifluoromethyl)phenyl]ethyl}pyrido[2,3-d]pyrimidin-4-amine] the value was 10.6 nM; for `CC(=O)N1CC(c2cnc3nc(C)nc(N[C@H](C)c4cccc(C(F)(F)F)c4C)c3c2)C1` [Example 40, 1-{3-[2-methyl-4-({(1R)-1-[2-methyl-3-(trifluoromethyl)phenyl]ethyl}amino)pyrido[2,3-d]pyrimidin-6-yl]azetidin-1-yl}ethan-1-one], 16.1 nM.
Take `CC(=O)N1CCN(c2cc3c(N[C@H](C)c4cccc(C(F)(F)F)c4C)nc(C)nc3nc2C)C(=O)C1` [Example 68, 4-acetyl-1-[2,7-dimethyl-4-({(1R)-1-[2-methyl-3-(trifluoromethyl)phenyl]ethyl}amino)pyrido[2,3-d]pyrimidin-6-yl]piperazin-2-one]: the IC50 came out at 2.93 nM.
`Cc1nc(N[C@H](C)c2cccc(C(F)(F)F)c2C)c2cc(N3CCCS3(=O)=O)cnc2n1` [Example 34, 2-[2-methyl-4-({(1R)-1-[2-methyl-3-(trifluoromethyl)phenyl]ethyl}amino)pyrido[2,3-d]pyrimidin-6-yl]-1 lambda^6,2-thiazolidine-1,1-dione]: the IC50 came to 13 nM.
Take `CC(=O)N1C[C@@H]2C[C@H]1CN2c1cnc2nc(C)nc(N[C@H](C)c3cccc(C(F)(F)C(C)(C)O)c3F)c2c1` [Example 50, 1-{(1 S,4S)-5-[4-({(1R)-1-[3-(1,1-difluoro-2-hydroxy-2-methylpropyl)-2-fluorophenyl]ethyl}amino)-2-methylpyrido[2,3-d]pyrimidin-6-yl]-2,5-diazabicyclo[2.2.1]heptan-2-yl}ethan-1-one]: the IC50 is 2.93 nM.
In the case of `CC(=O)N1CCC(c2cc3c(N[C@H](C)c4cccc(C(F)(F)C(C)(C)O)c4F)nc(C)nc3nc2C)=C(C)C1` [Example 62, 1-{4-[4-({(1R)-1-[3-(1,1-difluoro-2-hydroxy-2-methylpropyl)-2-fluorophenyl]ethyl}amino)-2,7-dimethylpyrido[2,3-d]pyrimidin-6-yl]-5-methyl-3,6-dihydropyridin-1(2H)-yl}ethan-1-one], the IC50 was determined as 14.5 nM.
On to `CC(=O)N1CC2(CC=C(c3cnc4nc(C)nc(N[C@H](C)c5cccc(C(F)(F)F)c5C)c4c3)CC2)C1` [Example 27, 1-{7-[2-methyl-4-({(1R)-1-[2-methyl-3-(trifluoromethyl)phenyl]ethyl}amino)pyrido[2,3-d]pyrimidin-6-yl]-2-azaspiro[3.5]non-6-en-2-yl}ethan-1-one], for which the IC50 is 7.96 nM.
The value for `CC(=O)N1CC=C(c2cnc3ncnc(N[C@H](C)c4cccc(C(F)(F)F)c4C)c3c2)CC1` [Example 12, 1-{4-[4-({(1R)-1-[2-methyl-3-(trifluoromethyl)phenyl]ethyl}amino)pyrido[2,3-d]pyrimidin-6-yl]-3,6-dihydropyridin-1(2H)-yl}ethan-1-one] was 4.06 nM.
Turning to `CC(=O)N1CC2(C1)CN(c1cc3c(N[C@H](C)c4cccc(C(F)(F)C(C)(C)O)c4F)nc(C)nc3nc1C(F)(F)F)C2` [Example 70, 1-{6-[4-({(1R)-1-[3-(1,1-difluoro-2-hydroxy-2-methylpropyl)-2-fluorophenyl]ethyl}amino)-2-methyl-7-(trifluoromethyl)pyrido[2,3-d]pyrimidin-6-yl]-2,6-diazaspiro[3.3]heptan-2-yl}ethan-1-one], the IC50 came out at 5.47 nM.
On to `CC(=O)N1CC=C(c2cc3c(N[C@H](C)c4cccc(C(F)F)c4F)nc(C)nc3nc2C)CC1` [Example 56, 1-{4-[4-({(1R)-1-[3-(difluoromethyl)-2-fluorophenyl]ethyl}amino)-2,7-dimethylpyrido[2,3-d]pyrimidin-6-yl]-3,6-dihydropyridin-1(2H)-yl}ethan-1-one], for which the IC50 is 14.1 nM.
The value for `Cc1nc(N[C@H](C)c2cccc(C(F)(F)F)c2C)c2cc(N3CC4(CN(C(N)=O)C4)C3)cnc2n1` [Example 48, 6-[2-methyl-4-({(1R)-1-[2-methyl-3-(trifluoromethyl)phenyl]ethyl}amino)pyrido[2,3-d]pyrimidin-6-yl]-2,6-diazaspiro[3.3]heptane-2-carboxamide] was 9.95 nM; that for `CC(=O)N1CCC(c2cnc3nc(C)nc(N[C@H](C)c4cccc(C(F)F)c4F)c3c2)CC1` [Example 44, 1-{4-[4-({(1R)-1-[3-(difluoromethyl)-2-fluorophenyl]ethyl}amino)-2-methylpyrido[2,3-d]pyrimidin-6-yl]piperidin-1-yl}ethan-1-one] was 8.43 nM.
